Data on one compound can be found in patent US20100099756A1, “USES OF INCENSOLE, INCENSOLE ACETATE AND DERIVATIVES THEREOF” (YISSUM RESEARCH DEVELOPMENT COMPANY OF THE HEBREW …, priority 2006, published 2010).

The target in assay [1] is T1, TRPV3 (Mus musculus, UniProt Q8K424).
T1 sequence (Q8K424 1-791): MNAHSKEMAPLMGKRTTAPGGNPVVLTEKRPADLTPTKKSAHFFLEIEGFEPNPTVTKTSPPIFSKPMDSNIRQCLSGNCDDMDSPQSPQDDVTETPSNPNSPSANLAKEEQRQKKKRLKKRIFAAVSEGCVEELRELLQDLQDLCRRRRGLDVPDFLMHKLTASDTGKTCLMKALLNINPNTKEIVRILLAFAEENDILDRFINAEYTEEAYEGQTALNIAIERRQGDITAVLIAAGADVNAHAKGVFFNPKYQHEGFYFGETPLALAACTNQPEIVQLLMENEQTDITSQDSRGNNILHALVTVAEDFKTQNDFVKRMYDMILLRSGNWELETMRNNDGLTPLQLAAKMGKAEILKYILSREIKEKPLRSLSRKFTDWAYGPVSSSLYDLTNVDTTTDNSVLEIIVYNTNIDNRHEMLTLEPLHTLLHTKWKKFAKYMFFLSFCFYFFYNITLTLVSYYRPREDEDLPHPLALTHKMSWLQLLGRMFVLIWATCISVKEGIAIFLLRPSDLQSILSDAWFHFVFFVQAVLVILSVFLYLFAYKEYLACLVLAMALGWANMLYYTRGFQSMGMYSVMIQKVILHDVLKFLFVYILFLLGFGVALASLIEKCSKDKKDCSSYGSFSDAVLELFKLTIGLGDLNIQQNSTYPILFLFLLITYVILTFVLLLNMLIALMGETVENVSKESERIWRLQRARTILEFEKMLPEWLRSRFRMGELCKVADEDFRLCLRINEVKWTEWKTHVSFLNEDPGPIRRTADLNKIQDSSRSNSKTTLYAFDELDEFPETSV
Put plainly: Calcium imaging of TRPV3+/+ and TRPV3−/− primary keratinocytes. Particulars: IA 500 μM. Set-up: endogenous in cells; host or cells: primary keratinocytes from TRPV3+/+ mouse pups (day 1-4); TRPV3-/- cells as control. Format: cell-based. The source says:
HEK293 cells were transiently transfected with a rat TRPV2 plasmid using lipofectamine reagent (Invitrogen, Carlsbad, Calif.) according to manufacturer's protocol. They were then maintained in Dulbecco's modified Eagle Medium/10% fetal calf serum supplemented with Penicillin, Streptomycin, and L-glutamine. Primary keratinocytes from TRPV3-deficient and TRPV3+/+ mouse pups (day 1-4) were harvested and cultured as described previously [Chung, M. K., Lee, H., Mizuno, A., Suzuki, M. & Caterina, M. J. TRPV3 and TRPV4 mediate warmth-evoked currents in primary mouse keratinocytes. J. Biol. Chem. 279, 21569-21575 (2004)].
Calcium imaging of TRPV3^+/+ and TRPV3^−/− keratinocytes. Primary keratinocytes from TRPV3-deficient and WT mouse pups (day 1-4) were harvested and cultured as described [Chung, M. K., Lee, H., Mizuno, A., Suzuki, M. & Caterina, M. J. TRPV3 and TRPV4 mediate warmth-evoked currents in primary mouse keratinocytes. J. Biol. Chem. 279, 21569-21575 (2004)].
Cells were plated on glass coverslips (10^5/cm^2) and incubated for 48-60 h, then loaded with fura-2 AM (20 μM, 0.04% pleuronic acid, 32° C. for 1 h) in imaging buffer containing (in mM): 130 NaCl, 2.5 CaCl2, 0.6 MgCl2, 10 HEPES, 1.2 NaHCO3, 10 glucose, pH 7.45. Ratiometric Ca^2+ imaging was performed as previously described [O'dell, D. K., Rimmerman, N., Pickens, S. R. & Walker J. M. Fatty acyl amides of endogenous tetrahydroisoquinolines are active at the recombinant human TRPV1 receptor. Bioorg. Med. Chem. 15, 6164-6169 (2007)]. Drug was added to the bath following a period of baseline recording. Calcium measurements were made from 30 randomly selected cells per coverslip.
Data analysis of calcium imaging data. Analysis of calcium imaging data was done using a non-linear regression curve fit (Graphpad 4 Prism, San Diego, Calif.). t tests and one way ANOVA were calculated using SPSS (Chicago, Ill.). […] Averaged drug responses over 30 randomly selected cells per coverslip were analyzed with two-tailed unpaired t tests.

Assay [2] has as its target T1, TRPV3. Put plainly: Porsolt forced swimming test in WT and TRPV3−/− mice. Type of assay: in vivo, C57BL/6 mice. The settings on record: 75 mg/kg. Set-up: from tissue; host or cells: whole animal, wild type C57BL/6 female mice (TRPV3 KO as control). How it is done: Wild type and TRPV3^−/− mice (18-20 weeks old) were injected with vehicle (isopropanol:emulphor:saline=1:1:18) or IA (75 mg/kg). 30 min later they were tested in a, the elevated plus maze (5 min), followed by b, 9 min exposure to the Porsolt forced-swimming test. […] Data are presented as means±SEM; n=4-5. * p<0.05, compared to WT-Vehicle-injected mice (Bonferroni post hoc test). ** p<0.01, compared to WT-Vehicle-injected mice (Bonferroni post hoc test).
Animals and procedures. Female Sabra mice (Harlan, Israel, 15-20 weeks old) and wild type C57BL/6 or TRPV3 KO female mice (18-20 weeks old) [Chung, M. K., Lee, H., Mizuno, A., Suzuki, M. & Caterina, M. J. TRPV3 and TRPV4 mediate warmth-evoked currents in primary mouse keratinocytes. J. Biol. Chem. 279, 21569-21575 (2004)] were used for behavioral assessments. 10 mice were housed in each cage. The animal care and protocols met the guidelines of the U.S. National Institutes of Health, detailed in the Guide for the Care and Use of Laboratory Animals, and were applied in conformity with the Institutional Ethics Committees. For the c-Fos immunostaining, female Sabra mice (see above) were used. Temperature in the animal room was maintained between 20-22° C., the light cycle was 12 h lights on (8:00-20:00 h); 12 h lights off (20:00-8:00 h). […]

Structures are written as SMILES.

Turning to `CC(=O)OC1CC/C(C)=C/CC/C(C)=C/CC2(C(C)C)CCC1(C)O2` (stereo not drawn) [IA, incensole acetate], the “calcium influx in primary keratinocytes from TRPV3−/− mice” value in assay [1] is “not from TRPV3”. Moreover, the “calcium influx in primary keratinocytes from WT mice” value in assay [1] (camphor 10 mM) is “induced a calcium influx”. Besides, the “immobility time, WT mice” value in assay [2] was “significantly reduced the immobility time”.
